# US20250311722A1, “IMPROVED BIOCIDE” (Purgos ApS, priority 2022, published 2025)
# “And” between values parts separate entries of the source, which are not always exact repeats. Identical values can stand only once.
# Tests used:
# Assay type in all cases: cell-based
# [1] = system: selected typical species of contaminants; test: Substitution of conventional biocides with NBDA in products, LuminUltra test against controls
# Source text: A test sample (T): In a known recipe for a product comprising one or more conventional biocide(s), said biocide(s) is replaced with NBDA (or another tert, amine according to the present invention).
# A control sample (C): Product comprising one or more conventional biocide(s) produced following an established recipe.
# A negative control sample (N): A further negative control may be provided by removing said conventional biocide(s) from the recipe, without addition of NBDA (or other biocides). Provision and test of the N-sample can be optional.
# Samples, such as test-, control- and/or negative control samples are provided according to Example 3. To assess the effect of the biocide(s), microbial contamination is measured, such as according to Example 6, or other conventional methods known in the art.
# In short, samples are exposed to microbial contamination (microbial stress test) e.g. by opening a lid and closing it for a defined period of time, or other operations, mimicking a conventional user situation. Alternatively, samples can be inoculated with defined quantities of microorganisms, such as one or more indicator microorganism.
# The samples can be divided into different aliquots, and incubated for selected periods at one or more relevant temperatures, such as e.g. one or more of 4° C., room temperature (RT, usually 20° C., 22° C., or 25° C.), 30° C., 32° C., 37° C., 40° C., and/or 60° C.), simulating e.g. appropriate storage, processing and usage conditions.
# ATP, such as intracellular ATP is measured using a commercially available system, such as provided by LumiUltra®, in particular a method using luminase (Aqua Tools, see details below).
# In short, a buffering solution and Luminase enzyme are mixed. After daily ATP standard calibration, an aliquot, such as 1 ml of sample is transferred to an 1 ml extraction tube. After dilution in UltraLute resin, the total ATP (content can be established in the luminescence measuring device. 2) 1 ml sample is dissolved in LumiSolve stabilizing agent. […] For further details, see e.g. Aqua Tools (78300 Poissy, France) Quick reference guide QuenchGone21™ Speciality Test Kit QG21S-50/QG21St-100 2G.
# [2] = system: Gloeophyllum trabeum. BAM Ebw. 109; test: EN 113 test against wood destroying basidiomycetes; details: for Corrected mass loss / Mass loss: single blocks; for Corrected mass loss, Mean / Mass loss, Mean: mean of blocks
# Source text: (§1) EN 113, 2020: Durability of wood and wood-based products-Test method against wood destroying basidiomycetes. Assessment of biocidal efficacy of wood preservatives.
# (§2) Assessment of the results shown in table XIV.: The protection provided for the wood by the test preservative at the given concentration is deemed to be adequate if: • a) the corrected mean loss is less than 3.0% (m/m) • b) not more than one specimen has suffered a loss in mass greater than 3.0% (m/m) but less than 5.0% (m/m)
# (§3) The impregnation process was carried out on 24-03-2021 with the following conditions:
# (§4) Pre-vacuum at 0.1 bar for 30 minutes.
# (§5) Pressure of 13 bars for 60 minutes.
# (§6) Scots pine sapwood (Pinus sylvestris L.) for brown rot fungi with an average density of 589 kg/m3.
# (§7) 4 weeks according to EN 113 at 65% RH and 20° C. until stable mass was obtained.
# (§8) Ionising radiation (2× 25 kGy).
# Poria placenta. FPRL 280 = test: EN 113 test against wood destroying basidiomycetes; details: for Corrected mass loss / Mass loss: single blocks
# Source text: as §1, §2, §3, §4, §5, §6, §7, §8
# [3] = system: Coriolus versicolor. CTB 863 A; test: EN 113 test against wood destroying basidiomycetes; details: for Corrected mass loss, Mean / Mass loss, Mean: mean of blocks; for Corrected mass loss / Mass loss: single blocks
# Procedure: EN 113, 2020: Durability of wood and wood-based products-Test method against wood destroying basidiomycetes. Assessment of biocidal efficacy of wood preservatives. […] The impregnation process was carried out on 24-03-2021 with the following conditions: Pre-vacuum at 0.1 bar for 30 minutes. Pressure of 13 bars for 60 minutes. Beech (Fagus sylvatica L.) for white rot fungi (Coriolus versicolor) with an average density 725 kg/m3. 4 weeks according to EN 113 at 65% RH and 20° C. until stable mass was obtained. Ionising radiation (2× 25 kGy).
# [4] = concentrations of 0.36%, 0.51%, 0.72%, 1.01% and 1.43%
smiles,measurement,setting,value
"CCCCN(CCO)CCO [NBDA, N-butyldiethanolamine]",biocidal protection,"[1]; SBR precoat composition for carpets, MIT/BIT substituted with 0.5% NBDA",same performance as the origin
same,biocidal effect,"[1]; Styrene-Butadiene-Rubber (SBR)-emulsion, MIT and/or BIT replaced, 32° C.",comparable and better than the normal biocide package
same,biocidal effect,"[1]; algae removing compound, benzalkonium chloride replaced with 1-5%, 32° C.",comparable or even surpassing benzalkonium chloride in function
same,biocidal effect,"[1]; circulating heat-transfer systems, benzalkonium chloride replaced with 1-5%, 32° C.",comparable to benzalkonium chloride
same,biocidal effect,"[1]; combination dispersions, emulsions, suspensions, 32° C.",comparable and better than the normal biocide package
same,biocidal effect,"[1]; disinfection compound for pipes, benzalkonium chloride replaced with 1-5%, 32° C.",comparable to benzalkonium chloride
same,preservation effect,"[1]; food, preservatives substituted with comparable amounts of NBDA",suitable preservation effect(s) as the beforementioned preservative(s)
same,biocidal effect,"[1]; hand cleanser, sodiumbenzoate, MIT and BIT replaced, 32° C.",comparable or even better than the normal biocide package
same,biocidal effect,"[1]; liquid dishwashing compound, MIT/BIT replaced with 0.01-1%, 32° C.",comparable to or even surpassing the conventional biocide
same,biocidal effect,"[1]; liquid disinfection compound, benzalkonium chloride replaced with 1-5%, 32° C.",comparable or even surpassing benzalkonium chloride in function
same,biocidal effect,"[1]; moisturizing crème, benzoate and commercial biocides replaced, 32° C.",comparable or even better than the normal biocide package
same,biocidal effect,"[1]; soap, sodiumbenzoate, MIT and BIT replaced, 32° C.",comparable or even better than the normal biocide package
same,biocidal effect,"[1]; stabilized suspension, MIT and BIT replaced, 32° C.",comparable and better than the normal biocide package
same,biocidal effect,"[1]; swimming pool water, chlorine compounds replaced, 32° C.",comparable or even better than chlorine based traditional solutions
same,biocidal effect,"[1]; toothpaste, benzoate (e.g. 0.5%) replaced with similar concentration",comparable or even better than benzoate
same,biocidal effect,"[1]; veterinary disinfection compound, benzalkonium chloride and/or glutaraldehyde replaced with 1-5%, 32° C.",comparable or even surpassing both benzalkonium chloride and glutaraldehyde in function
same,biocidal effect,"[1]; waterborne cooling compound, benzalkonium chloride replaced with 1-5%, 32° C.",comparable or surpassing benzalkonium chloride
same,biocidal effect,"[1]; watersystems for toilets, washing facilities, benzalkonium chloride replaced with 1-5%, 32° C.",comparable to benzalkonium chloride
same,"Toxic value, Retention of product",[2]; Scots pine sapwood,6.85-10.03 kg/m^3
same,"Toxic value, Solution conc.",[2]; Scots pine sapwood,1.01-1.43 % w/w
same,fungicide for preventing wood destruction,[2]; [4],effective as a fungicide
same,Corrected mass loss,[2]; solution conc. 0.36% w/w,44.8% and 30.6% and 32.5% and 33.8%
same,Mass loss,[2]; solution conc. 0.36% w/w,45.0% and 30.8% and 32.7% and 34.0%
same,"Corrected mass loss, Mean",[2]; solution conc. 0.36 % w/w,35.4%
same,"Mass loss, Mean",[2]; solution conc. 0.36 % w/w,35.6%
same,Corrected mass loss,[2]; solution conc. 0.51% w/w,34.8% and 29.4% and 36.4% and 31.1%
same,Mass loss,[2]; solution conc. 0.51% w/w,35.0% and 29.6% and 36.6% and 31.3%
same,"Corrected mass loss, Mean",[2]; solution conc. 0.51 % w/w,32.9%
same,"Mass loss, Mean",[2]; solution conc. 0.51 % w/w,33.1%
same,Corrected mass loss,[2]; solution conc. 0.72% w/w,30.9% and 33.1% and 34.2% and 26.5%
same,Mass loss,[2]; solution conc. 0.72% w/w,30.6% and 32.7% and 33.8% and 26.1%
same,"Corrected mass loss, Mean",[2]; solution conc. 0.72 % w/w,31.2%
same,"Mass loss, Mean",[2]; solution conc. 0.72 % w/w,30.8%
same,"Corrected mass loss, Mean",[2]; solution conc. 1.01 % w/w,11.4%
same,"Mass loss, Mean",[2]; solution conc. 1.01 % w/w,11.0%
same,Corrected mass loss,[2]; solution conc. 1.43% w/w,0.7% and 0.3% and 2.0%
same,Mass loss,[2]; solution conc. 1.43% w/w,−0.4% and −0.8% and 1.0% and 0.9%
same,"Corrected mass loss, Mean",[2]; solution conc. 1.43 % w/w,1.3%
same,"Mass loss, Mean",[2]; solution conc. 1.43 % w/w,0.2%
same,"Toxic value, Retention of product",Poria placenta. FPRL 280; Scots pine sapwood,4.87-7.02 kg/m^3
same,"Toxic value, Solution conc.",Poria placenta. FPRL 280; Scots pine sapwood,0.72-1.01 % w/w
same,fungicide for preventing wood destruction,Poria placenta. FPRL 280; [4],effective as a fungicide
same,"Corrected mass loss, Mean",Poria placenta. FPRL 280; solution conc. 0.36% w/w,14.2%
same,"Mass loss, Mean",Poria placenta. FPRL 280; solution conc. 0.36% w/w,14.4%
same,Corrected mass loss,Poria placenta. FPRL 280; solution conc. 0.36% w/w,14.0% and 19.2% and 11.4% and 12.3%
same,Mass loss,Poria placenta. FPRL 280; solution conc. 0.36% w/w,14.2% and 19.4% and 11.6% and 12.5%
same,"Corrected mass loss, Mean",Poria placenta. FPRL 280; solution conc. 0.51% w/w,14.6%
same,"Mass loss, Mean",Poria placenta. FPRL 280; solution conc. 0.51% w/w,14.8%
same,Corrected mass loss,Poria placenta. FPRL 280; solution conc. 0.51% w/w,14.0% and 17.1% and 14.2% and 13.3%
same,Mass loss,Poria placenta. FPRL 280; solution conc. 0.51% w/w,14.2% and 17.3% and 14.4% and 13.5%
same,"Corrected mass loss, Mean",Poria placenta. FPRL 280; solution conc. 0.72% w/w,8.2%
same,"Mass loss, Mean",Poria placenta. FPRL 280; solution conc. 0.72% w/w,7.8%
same,Corrected mass loss,Poria placenta. FPRL 280; solution conc. 0.72% w/w,9.2% and 9.0% and 6.3% and 8.2%
same,Mass loss,Poria placenta. FPRL 280; solution conc. 0.72% w/w,8.9% and 8.7% and 5.9% and 7.9%
same,"Corrected mass loss, Mean",Poria placenta. FPRL 280; solution conc. 1.01% w/w,1.4%
same,"Mass loss, Mean",Poria placenta. FPRL 280; solution conc. 1.01% w/w,1.0%
same,Corrected mass loss,Poria placenta. FPRL 280; solution conc. 1.01% w/w,2.5% and 0.1% and 1.3% and 1.9%
same,Mass loss,Poria placenta. FPRL 280; solution conc. 1.01% w/w,2.0% and −0.3% and 0.8% and 1.4%
same,"Corrected mass loss, Mean",Poria placenta. FPRL 280; solution conc. 1.43% w/w,1.5%
same,"Mass loss, Mean",Poria placenta. FPRL 280; solution conc. 1.43% w/w,0.4%
same,Corrected mass loss,Poria placenta. FPRL 280; solution conc. 1.43% w/w,0.5% and 4.1% and 0.7% and 0.6%
same,Mass loss,Poria placenta. FPRL 280; solution conc. 1.43% w/w,−0.6% and 3.0% and −0.4% and −0.5%
same,"Toxic value, Retention of product",[3]; Beech,>15.40 kg/m^3
same,"Toxic value, Solution conc.",[3]; Beech,>2.20 % w/w
same,"Corrected mass loss, Mean",[3]; solution conc. 0.55 % w/w,26.8%
same,"Mass loss, Mean",[3]; solution conc. 0.55 % w/w,26.8%
same,Corrected mass loss,[3]; solution conc. 0.55 % w/w,32.3% and 27.5% and 25.6% and 21.8%
same,Mass loss,[3]; solution conc. 0.55 % w/w,32.3% and 27.5% and 25.6% and 21.8%
same,"Corrected mass loss, Mean",[3]; solution conc. 0.78 % w/w,31.8%
same,"Mass loss, Mean",[3]; solution conc. 0.78 % w/w,31.7%
same,Corrected mass loss,[3]; solution conc. 0.78 % w/w,26.0% and 25.1% and 31.3% and 44.7%
same,Mass loss,[3]; solution conc. 0.78 % w/w,25.9% and 25.0% and 31.2% and 44.6%
same,"Corrected mass loss, Mean",[3]; solution conc. 1.09 % w/w,31.2%
same,"Mass loss, Mean",[3]; solution conc. 1.09 % w/w,30.9%
same,Corrected mass loss,[3]; solution conc. 1.09 % w/w,30.5% and 29.8% and 29.4% and 34.9%
same,Mass loss,[3]; solution conc. 1.09 % w/w,30.2% and 29.5% and 29.2% and 34.6%
same,"Corrected mass loss, Mean",[3]; solution conc. 1.55 % w/w,28.3%
same,"Mass loss, Mean",[3]; solution conc. 1.55 % w/w,27.4%
same,Corrected mass loss,[3]; solution conc. 1.55 % w/w,28.6% and 26.8% and 27.3% and 30.3%
same,Mass loss,[3]; solution conc. 1.55 % w/w,27.8% and 25.9% and 26.4% and 29.5%
same,"Corrected mass loss, Mean",[3]; solution conc. 2.20 % w/w,25.7%
same,"Mass loss, Mean",[3]; solution conc. 2.20 % w/w,24.1%
